# Experimental data taken from patent publication US20030064941A1, “Avermectin and praziquantel combination therapy” (priority 2001, published 2003).
# Several values for one entry are separate records, joined by “and”; a condition that tells them apart may be missing. Identical values can stand only once. Like-named read-outs stand apart in the source and are kept apart here.
# Assays:
# [1] = for Concentration (mg per g) / Concentration (mg per ml): selamectin added at 120 mg per ml, 30° C.
# Description: (§2) To achieve this a series of solutions of varying IPA/DPGMME ratio were prepared. To help minimize any solubility issues, which could arise due to the presence of selamectin in a formulation, a constant amount of selamectin was added to each solution. After achieving saturated solubility in these solutions and following filtration to remove excess undissolved praziquantel, the level of praziquantel (and selamectin) in solution was determined by HPLC.
# (§3) A series of IPA/DPGMME mixtures were prepared in duplicate as outlined in Table 1. To these were added a fixed amount of selamectin to provide a constant concentration of 120 mg per ml, i.e., the maximum selamectin concentration found in Stronghold™. After preparation these solutions were placed at 30° C. and rolled continuously for 48 hours.
# (§4) Praziquantel was analysed using an gradient HPLC method modified from that developed for selamectin. […] This same method was also used to check on the selamectin content in these same solutions.
# (§5) The solubility of praziquantel and selamectin in the IPA/DPGMME solutions was calculated as both mg per g and mg per ml. The mass of a 1 ml solution taken for analysis was also measured so that an approximate density could be calculated.
# [2] = test system: Taenia spp; test: Topical co-formulation efficacy against natural tapeworm infections in cats (post mortem counts); type: in vivo; conditions: Trial "B", single topical dose, 30 days after treatment
# Description: (§1) […] Cats harbouring natural tapeworm infections were used, and randomized to treatment based on pre-trial infections. Animals were killed 30 days after treatment, and post mortem tapeworm counts were conducted.
# [3] = test system: Dipylidium spp; test: as above; type: in vivo; conditions: single topical dose, 30 days after treatment
# Description: as §1
# [4] = cats, 3× dosage levels (oral, subcutaneous, intramuscular) during reproduction; cited from earlier work
# [5] = physchem; conditions: 30 °C, organic solvent or mixture, thermodynamic from solid, solubility (based on mean values)
# Description: as §2, §3, §4, §5
# [6] = test system: Taenia taeniaeformis; conditions: cats, experimental immature infections; cited from earlier work
# [7] = solution 2A: IPA 75 / DPGMME 25 % V/V
# [8] = solutions 1A/1B: IPA 100 / DPGMME 0 % V/V
# [9] = solutions 3A/3B: IPA 50 / DPGMME 50 % V/V
# [10] = solutions 4A/4B: IPA 25 / DPGMME 75 % V/V
# [11] = solutions 5A/5B: IPA 0 / DPGMME 100 % V/V
# [12] = selamectin 8 mg/kg and/or praziquantel 1 mg/kg
# [13] = Trial "A", selamectin 8 mg/kg and/or praziquantel 1 mg/kg
# [14] = Trial "B", selamectin 8 mg/kg and/or praziquantel 1 mg/kg
# [15] = praziquantel 0.5 mg/kg, alone or with selamectin 8 mg/kg
# [16] = Trial "B", praziquantel 0.5 mg/kg, alone or with selamectin 8 mg/kg
compound,measurement,setting,value
"CO[C@H]1C[C@H](O[C@@H]2/C(C)=C/C[C@@H]3C[C@@H](C[C@]4(CC[C@H](C)[C@@H](C5CCCCC5)O4)O3)OC(=O)[C@@H]3C=C(C)/C(=N/O)[C@H]4OC/C(=C\C=C\[C@@H]2C)[C@]43O)O[C@@H](C)[C@@H]1O [Selamectin, 5-oximino-22,23-dihydro-25-cyclohexylayermectin B1]",solubility as the IPA concentration reduces,"[1]; IPA/DPGMME solutions, all ratios",≥ 100 mg/g
same,Concentration (mg per g),[1]; [7],118 mg per g
same,Concentration (mg per ml),[1]; [7],103 mg per ml
same,Concentration (mg per g),[1]; [8],123 mg per g
same,Concentration (mg per ml),[1]; [8],103 mg per ml
same,Concentration (mg per g),[1]; [9],113 mg per g
same,Concentration (mg per ml),[1]; [9],103 mg per ml
same,Concentration (mg per g),[1]; [10],113 mg per g and 108 mg per g
same,Concentration (mg per ml),[1]; [10],107 mg per ml and 103 mg per ml
same,Concentration (mg per g),[1]; [11],104 mg per g and 103 mg per g
same,Concentration (mg per ml),[1]; [11],103 mg per ml and 102 mg per ml
same,Mean Taenia post mortem count (n = 5 / gp),[2]; [12],No infection
same,% Efficacy (Dipylidium),[3]; [13],40%
same,Mean Dipylidium post mortem count (n = 4 / gp),[3]; [13],7.2
same,Mean Dipylidium post mortem count (n = 5 / gp),[3]; [14],No infection
"O=C(C1CCCCC1)N1CC(=O)N2CCc3ccccc3C2C1 (stereo not shown) [Praziquantel, 2-(cyclohexylcarbonyl)-1,2,3,6,7-11b-hexahydro-4H-pyraz-ino[2,1-a]isoquinolin-4-one]",% Efficacy (Taenia),[2]; [15],100%
same,Mean Taenia post mortem count (n = 5 / gp),[2]; [15],0
same,% Efficacy (Taenia),[2]; [12],72%
same,Mean Taenia post mortem count (n = 5 / gp),[2]; [12],1.2
same,% Efficacy (Dipylidium),[3]; [13],74%
same,Mean Dipylidium post mortem count (n = 4 / gp),[3]; [13],3.25
same,% Efficacy (Dipylidium),[3]; [16],16%
same,Mean Dipylidium post mortem count (n = 5 / gp),[3]; [16],7.6
same,% Efficacy (Dipylidium),[3]; [14],89%
same,Mean Dipylidium post mortem count (n = 5 / gp),[3]; [14],1
same,"effects on fertility, conception, fetal development or pregnancy",[4],"lack of effects on fertility, conception, fetal development or pregnancy"
same,solubility at 48 h,[5],67 mg/mL
same,elimination of experimental T. taeniaeformis infections as young as seven (7) days,[6],100%
